Source: ChEMBL document CHEMBL3638470, “Substituted 5,6,7,8-tetrahydro-1,6-naphthyridines as factor XIa inhibitors” (2015)
pKi: −log10 of the molar value.

Target: Coagulation factor XI (Homo sapiens, UniProt P03951)
Experiment: Inhibition Assay: The effectiveness of compounds of the present invention as inhibitors of the coagulation factors XIa, Vila, IXa, Xa, Xlla, plasma kallikrein or thrombin, can be determined using a relevant purified serine protease, respectively, and an appropriate synthetic substrate. The rate of hydrolysis of the chromogenic or fluorogenic substrate by the relevant serine protease was measured both in the absence and presence of compounds of the present invention. […] A decrease in the rate of absorbance or fluorescence change in the presence of inhibitor is indicative of enzyme inhibition. Such methods are known to one skilled in the art.

Coagulation factor XI, sequence (P03951 19-387 limits assumed): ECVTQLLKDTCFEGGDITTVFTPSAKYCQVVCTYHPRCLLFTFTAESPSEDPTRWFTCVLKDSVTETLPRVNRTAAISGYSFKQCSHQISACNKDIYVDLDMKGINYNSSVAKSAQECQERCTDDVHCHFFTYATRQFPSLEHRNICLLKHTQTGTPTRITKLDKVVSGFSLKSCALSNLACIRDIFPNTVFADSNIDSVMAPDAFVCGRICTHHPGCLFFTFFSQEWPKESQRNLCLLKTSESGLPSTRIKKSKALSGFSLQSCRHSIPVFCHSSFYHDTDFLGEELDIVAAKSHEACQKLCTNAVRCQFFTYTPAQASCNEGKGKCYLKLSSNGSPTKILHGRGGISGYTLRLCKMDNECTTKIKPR
Coagulation factor XI, sequence (P03951 388-625 limits assumed): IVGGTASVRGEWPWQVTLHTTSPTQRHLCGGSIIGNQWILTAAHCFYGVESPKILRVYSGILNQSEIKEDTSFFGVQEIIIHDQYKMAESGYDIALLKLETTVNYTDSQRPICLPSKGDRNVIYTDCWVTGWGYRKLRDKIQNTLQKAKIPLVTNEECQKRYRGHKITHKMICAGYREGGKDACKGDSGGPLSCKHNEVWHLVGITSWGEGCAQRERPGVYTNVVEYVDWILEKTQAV

COC(=O)Nc1cccc(NC(=O)[C@@H]2c3ccccc3CCN2C(=O)/C=C/c2cc(Cl)ccc2-n2cnnn2)c1
pKi: 5.55
